The record followed here is BindingDB's records for doi:10.7270/Q2FX7CM7 (n/a, 1993).

The test addresses DNA gyrase A/A/B/B tetramer (Escherichia coli (strain K12), UniProt P0AES4+P0AES6). Kind of test: In vitro antibacterial activity was determined as inhibitory concentration causing 50% DNA-gyrase supercoiling inhibition (SCI).

For orientation: IC50 means the midpoint of a concentration-inhibition curve. Read a low IC50 as greater potency.

Structures are written as SMILES.

As for `C[C@H]1COc2c(N3CCN(C)CC3)c(F)cc3c(=O)c(C(=O)O)cn1c23` [9-fluoro-3-methyl-10-(4-methylpiperazin-1-yl)-7-oxo-2,3-dihydro-7H-[1,4]oxazino[2,3,4-ij]quinoline-6-carboxylic acid], the IC50 is 4.98 µM.
